43 compounds from ChEMBL document CHEMBL1133297, “Synthesis and erythropoietin receptor binding affinities of N,N-disubstituted amino acids” (Bioorg Med Chem Lett, 2000) can be followed below.

Where a SMILES comes first, the peptide text is derived from it.

Test [1] concerns the target T1, Erythropoietin receptor (Homo sapiens) (UniProt P19235).
T1 sequence (whole entry): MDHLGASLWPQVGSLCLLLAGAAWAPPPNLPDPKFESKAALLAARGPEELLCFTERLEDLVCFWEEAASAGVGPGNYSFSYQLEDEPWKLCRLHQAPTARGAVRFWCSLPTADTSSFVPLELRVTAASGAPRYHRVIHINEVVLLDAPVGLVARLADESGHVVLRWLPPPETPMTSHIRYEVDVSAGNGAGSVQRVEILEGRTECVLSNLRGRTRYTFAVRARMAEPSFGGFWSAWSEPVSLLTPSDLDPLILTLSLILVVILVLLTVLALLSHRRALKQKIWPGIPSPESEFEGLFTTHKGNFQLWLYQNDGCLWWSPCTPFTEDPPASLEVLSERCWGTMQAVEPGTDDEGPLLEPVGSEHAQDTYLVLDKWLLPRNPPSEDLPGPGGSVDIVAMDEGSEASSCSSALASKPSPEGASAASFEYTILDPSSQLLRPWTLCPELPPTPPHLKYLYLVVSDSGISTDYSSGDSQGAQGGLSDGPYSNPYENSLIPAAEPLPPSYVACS
The test is described as follows: Compound was evaluated for inhibition of [125I]EPO binding to Erythropoietin receptor (EBP) at a concentration of 50 uM.

The target of test [2] is T2, Erythropoietin receptor (Homo sapiens, UniProt P19235).
T2 sequence (P19235 whole entry): T1 sequence (whole entry)
Put plainly: Compound was evaluated for inhibition of [125I]-EPO binding to Erythropoietin receptor (EBP).

In test [3] the target is T1, Erythropoietin receptor (Homo sapiens). The test is described as follows: Compound was evaluated for inhibition of [125I]EPO binding to EBP (erythropoietin receptor) at a concentration of 50 uM.
Test [4] has as its target T2, Erythropoietin receptor. The test is described as follows: Compound was evaluated for inhibition of [125I]EPO binding to Erythropoietin receptor (EBP).

Take `COC(=O)[C@H](CO)N(C/C=C/c1cccc(Oc2ccccc2)c1)C/C=C/c1cccc(Oc2ccccc2)c1`: the inhibition in test [1] was 57%. The IC50 at Erythropoietin receptor [2] turned out to be 145 µM.

In turn, `O=C(O)CCC(=O)NCCCC[C@H](C(=O)NCCCCCCCCCCCCNC(=O)[C@H](CCCCNC(=O)CCC(=O)O)N(Cc1ccc(OCc2ccccc2)cc1)Cc1ccc(OCc2ccccc2)cc1)N(Cc1ccc(OCc2ccccc2)cc1)Cc1ccc(OCc2ccccc2)cc1` returned an inhibition in test [1] of 56%. The compound also displayed an IC50 on Erythropoietin receptor [2] of 100 µM.

Turning to `O=C(O)CCCC(=O)NCCCC[C@H](C(=O)NCCCCCCCCCCCCNC(=O)[C@H](CCCCNC(=O)CCCC(=O)O)N(Cc1ccc(OCc2ccccc2)cc1)Cc1ccc(OCc2ccccc2)cc1)N(Cc1ccc(OCc2ccccc2)cc1)Cc1ccc(OCc2ccccc2)cc1`, in test [1], the inhibition is 55%. At Erythropoietin receptor [2], this compound came in with a half-inhibitory concentration (IC50) of 85 µM.

In test [1], `COC(=O)[C@H](CCCCNC(=O)OC(C)(C)C)N(C/C=C/c1cccc(Oc2ccc(C(C)(C)C)cc2)c1)C/C=C/c1cccc(Oc2ccc(C(C)(C)C)cc2)c1` had an inhibition of 0%.

On to `COC(=O)[C@H](CCCCNC(=O)OC(C)(C)C)N(Cc1cccc(OCc2ccccc2)c1)Cc1cccc(OCc2ccccc2)c1`, for which the inhibition in test [1] came out at 7%.

The compound `CC(C)(C)c1ccc(Oc2cccc(/C=C/CN(C/C=C/c3cccc(Oc4ccc(C(C)(C)C)cc4)c3)[C@@H](CCC(=O)O)C(=O)O)c2)cc1` displayed an inhibition in test [1] of 78%. The same compound returned an IC50 on Erythropoietin receptor [2] of 30 µM.

The compound `COC(=O)[C@H](CCC(=O)O)NC/C=C/c1cccc(Oc2ccccc2)c1` registered an inhibition in test [1] of 6%.

In the case of `O=C(O)CCC(=O)NCCCC[C@H](C(=O)NCCCOCCCCOCCCNC(=O)[C@H](CCCCNC(=O)CCC(=O)O)N(Cc1ccc(OCc2ccccc2)cc1)Cc1ccc(OCc2ccccc2)cc1)N(Cc1ccc(OCc2ccccc2)cc1)Cc1ccc(OCc2ccccc2)cc1`, the inhibition in test [1] turned out to be 65%. At Erythropoietin receptor [2], the IC50 amounted to 6 µM.

Regarding `COC(=O)[C@H](CCCCN)N(Cc1cccc(OCc2ccccc2)c1)Cc1cccc(OCc2ccccc2)c1`, the inhibition in test [1] came out at 59%. On Erythropoietin receptor [2], this compound returned an IC50 of 10 µM.

Consider `O=C(O)CCC(=O)NCCCC[C@H](C(=O)NCCOCCOCCNC(=O)[C@H](CCCCNC(=O)CCC(=O)O)N(Cc1ccc(OCc2ccccc2)cc1)Cc1ccc(OCc2ccccc2)cc1)N(Cc1ccc(OCc2ccccc2)cc1)Cc1ccc(OCc2ccccc2)cc1`, for which the inhibition in test [1] is 93%. On Erythropoietin receptor [2], this compound came in with an IC50 of 1.5 µM.

Compound `COC(=O)[C@H](CCC(=O)OC(C)(C)C)NC/C=C/c1cccc(Oc2ccccc2)c1` showed an inhibition in test [3] of 6%.

In the case of `COC(=O)[C@H](CCCCN)N(C/C=C/c1cccc(Oc2ccc(C(C)(C)C)cc2)c1)C/C=C/c1cccc(Oc2ccc(C(C)(C)C)cc2)c1`, the inhibition in test [1] is 18%.

The compound `COC(=O)[C@H](CCCCNC(=O)OC(C)(C)C)NC/C=C/c1cccc(Oc2ccccc2)c1` came in with an inhibition in test [1] of 20%.

Regarding `COC(=O)[C@H](COC(C)(C)C)N(C/C=C/c1cccc(Oc2ccccc2)c1)C/C=C/c1cccc(Oc2ccccc2)c1`, the inhibition in test [1] turned out to be 0%.

`COC(=O)[C@H](CCCCNS(C)(=O)=O)N(C/C=C/c1cccc(Oc2ccccc2)c1)C/C=C/c1cccc(Oc2ccccc2)c1` yielded an inhibition in test [1] of 77%. Besides, on Erythropoietin receptor [2], the IC50 came to 35 µM.

`O=C(O)CCCC(=O)NCCCC[C@H](C(=O)NCCOCCOCCNC(=O)[C@H](CCCCNC(=O)CCCC(=O)O)N(Cc1ccc(OCc2ccccc2)cc1)Cc1ccc(OCc2ccccc2)cc1)N(Cc1ccc(OCc2ccccc2)cc1)Cc1ccc(OCc2ccccc2)cc1` registered an inhibition in test [1] of 88%. This compound registered an IC50 at Erythropoietin receptor [2] of 1.5 µM.

Turning to `O=C(O)C[C@@H](C(=O)NCCCOCCOCCOCCCNC(=O)[C@H](CC(=O)O)N(Cc1ccc(OCc2ccccc2)cc1)Cc1ccc(OCc2ccccc2)cc1)N(Cc1ccc(OCc2ccccc2)cc1)Cc1ccc(OCc2ccccc2)cc1`, the inhibition in test [1] was 66%. The compound further showed an IC50 at Erythropoietin receptor [2] of 28 µM.

The compound `CC(C)C[C@@H]1NC(=O)[C@H]([C@@H](C)O)NC(=O)[C@H](Cc2c[nH]c3ccccc23)NC(=O)[C@H](C(C)C)NC(=O)[C@@H](NC(=O)[C@H](CCCCN)NC(=O)[C@@H]2CCCN2C(=O)[C@H](CCC(N)=O)NC(=O)CNC(=O)CN)CSSC[C@@H](C(=O)N[C@@H](Cc2ccc(O)cc2)C(=O)N[C@@H](CO)C(=O)N[C@H](C(=O)NCC(=O)NCC(N)=O)[C@@H](C)O)NC(=O)[C@H](Cc2c[nH]cn2)NC(=O)[C@H](Cc2ccccc2)NC(=O)CNC(=O)[C@@H]2CCCN2C1=O` (HELM PEPTIDE1{G.G.Q.P.K.C.V.W.T.L.P.G.F.H.C.Y.S.T.G.G.[am]}$PEPTIDE1,PEPTIDE1,6:R3-15:R3$$$V2.0) came in with an IC50 on Erythropoietin receptor [4] of 5 µM.

Consider `COC(=O)[C@H](CCCCN)N(Cc1ccc(OCc2ccccc2)cc1)Cc1ccc(OCc2ccccc2)cc1`, for which the inhibition in test [1] came to 54%.

Take `COC(=O)[C@H](COC(C)(C)C)NC/C=C/c1cccc(Oc2ccccc2)c1`: the inhibition in test [1] was 8%.

`O=C(O)CC[C@H](NC/C=C/c1cccc(Oc2ccccc2)c1)C(=O)O`: the inhibition in test [1] is 0%.

`O=C(O)CN(C/C=C/c1cccc(Oc2ccccc2)c1)C/C=C/c1cccc(Oc2ccccc2)c1` came in with an inhibition in test [1] of 45%.

On to `O=C(O)CCC(=O)NCCCC[C@@H](C(=O)NCCCOCCOCCOCCCNC(=O)[C@H](CCCCNC(=O)CCC(=O)O)N(Cc1ccc(OCc2ccccc2)cc1)Cc1ccc(OCc2ccccc2)cc1)N(Cc1ccc(OCc2ccccc2)cc1)Cc1ccc(OCc2ccccc2)cc1`, for which, in test [1], the inhibition was 77%. The IC50 on Erythropoietin receptor [2] is 7 µM.

Turning to `CC(C)(C)OC(=O)CC[C@H](NC/C=C/c1cccc(Oc2ccccc2)c1)C(=O)O`, in test [1], the inhibition was found to be 0%.

In the case of `COC(=O)[C@H](CO)NC/C=C/c1cccc(Oc2ccccc2)c1`, the inhibition in test [1] was found to be 28%.

Compound `COC(=O)[C@H](CCC(=O)O)N(C/C=C/c1cccc(Oc2ccc(Cl)c(Cl)c2)c1)C/C=C/c1cccc(Oc2ccc(Cl)c(Cl)c2)c1` gave an inhibition in test [1] of 32%.

The compound `COC(=O)[C@H](CCC(=O)OC(C)(C)C)N(C/C=C/c1cccc(Oc2ccccc2)c1)C/C=C/c1cccc(Oc2ccccc2)c1` returned an inhibition in test [1] of 0%.

In the case of `O=C(O)C[C@H](C(=O)NCCCOCCCCOCCCNC(=O)[C@H](CC(=O)O)N(Cc1ccc(OCc2ccccc2)cc1)Cc1ccc(OCc2ccccc2)cc1)N(Cc1ccc(OCc2ccccc2)cc1)Cc1ccc(OCc2ccccc2)cc1`, in test [1], the inhibition came out at 75%. Besides, the IC50 on Erythropoietin receptor [2] turned out to be 18 µM.

In the case of `O=C(O)[C@H](CO)NC/C=C/c1cccc(Oc2ccccc2)c1`, in test [1], the inhibition came to 23%.

On to `NCCCC[C@H](C(=O)NCCOCCOCCNC(=O)[C@H](CCCCN)N(Cc1ccc(OCc2ccccc2)cc1)Cc1ccc(OCc2ccccc2)cc1)N(Cc1ccc(OCc2ccccc2)cc1)Cc1ccc(OCc2ccccc2)cc1`, for which the inhibition in test [1] worked out at 51%. Moreover, the IC50 at Erythropoietin receptor [2] was 2 µM.

Compound `O=C(O)CC[C@@H](C(=O)O)N(C/C=C/c1cccc(Oc2ccccc2)c1)C/C=C/c1cccc(Oc2ccccc2)c1` displayed an inhibition in test [1] of 78%. The IC50 at Erythropoietin receptor [2] was determined as 42 µM.

In turn, `O=C(O)CC[C@@H](C(=O)O)N(C/C=C/c1cccc(Oc2cccc(C(F)(F)F)c2)c1)C/C=C/c1cccc(Oc2cccc(C(F)(F)F)c2)c1` displayed an inhibition in test [1] of 70%. The compound also displayed an IC50 at Erythropoietin receptor [2] of 35 µM.

In turn, `O=C(O)CC[C@H](C(=O)NCCOCCOCCNC(=O)[C@H](CCC(=O)O)N(Cc1ccc(OCc2ccccc2)cc1)Cc1ccc(OCc2ccccc2)cc1)N(Cc1ccc(OCc2ccccc2)cc1)Cc1ccc(OCc2ccccc2)cc1` returned an inhibition in test [1] of 79%.

In test [1], `COC(=O)[C@H](CCCCNC(N)=O)N(C/C=C/c1cccc(Oc2ccccc2)c1)C/C=C/c1cccc(Oc2ccccc2)c1` gave an inhibition of 73%. The IC50 on Erythropoietin receptor [2] came to 35 µM.

Consider `O=C(O)CCCC(=O)NCCCC[C@@H](C(=O)NCCCOCCOCCOCCCNC(=O)[C@H](CCCCNC(=O)CCCC(=O)O)N(Cc1ccc(OCc2ccccc2)cc1)Cc1ccc(OCc2ccccc2)cc1)N(Cc1ccc(OCc2ccccc2)cc1)Cc1ccc(OCc2ccccc2)cc1`, for which the inhibition in test [1] stood at 78%. In addition, the IC50 on Erythropoietin receptor [2] stood at 10 µM.

`O=C(O)C[C@@H](C(=O)O)N(C/C=C/c1cccc(Oc2ccccc2)c1)C/C=C/c1cccc(Oc2ccccc2)c1` had an inhibition in test [1] of 81%.

The compound `O=C(O)CCCC(=O)NCCCC[C@H](C(=O)NCCCOCCCCOCCCNC(=O)[C@H](CCCCNC(=O)CCCC(=O)O)N(Cc1ccc(OCc2ccccc2)cc1)Cc1ccc(OCc2ccccc2)cc1)N(Cc1ccc(OCc2ccccc2)cc1)Cc1ccc(OCc2ccccc2)cc1` registered an inhibition in test [1] of 82%. Further, the IC50 at Erythropoietin receptor [2] was determined as 4 µM.

On to `COC(=O)[C@H](CCCCNC(=O)OC(C)(C)C)N(C/C=C/c1cccc(Oc2ccccc2)c1)C/C=C/c1cccc(Oc2ccccc2)c1`, for which, in test [1], the inhibition amounted to 0%.

On to `COC(=O)[C@H](CCCCNC(=O)OC(C)(C)C)N(Cc1ccc(OCc2ccccc2)cc1)Cc1cccc([N+](=O)[O-])c1`, for which the inhibition in test [1] stood at 24%.

In turn, `C[C@@H](C(=O)O)N(C/C=C/c1cccc(Oc2ccccc2)c1)C/C=C/c1cccc(Oc2ccccc2)c1` showed an inhibition in test [1] of 72%. In addition, the IC50 on Erythropoietin receptor [2] is 40 µM.

On to `COC(=O)[C@H](CCCCN)N(Cc1ccc(OCc2ccccc2)cc1)Cc1cccc([N+](=O)[O-])c1`, for which the inhibition in test [1] turned out to be 37%.

`CC(C)(C)OC(=O)C[C@@H](C(=O)OC(C)(C)C)N(C/C=C/c1cccc(Oc2ccccc2)c1)C/C=C/c1cccc(Oc2ccccc2)c1` came in with an inhibition in test [1] of 20%.

For `COC(=O)[C@H](CCCCNC(=O)OC(C)(C)C)N(Cc1ccc(OCc2ccccc2)cc1)Cc1ccc(OCc2ccccc2)cc1`, the inhibition in test [1] was determined as 5%.
